The results in this text go back to patent publication US20260049078A1, “DIFLUORO- AND TRIFLUORO-ACETYL HYDRAZIDES AS SELECTIVE HDAC6 INHIBITORS” (ITALFARMACO S.P.A., priority 2022, published 2026).

One data set addresses zHDAC6-CD2 wt (Danio rerio (Zebrafish) (Brachydanio rerio), UniProt F8W4B7). As to the kind of experiment: Isolation of long-lived/tight complex (spin column chromatography with LC-HRMS). The class given is binding. To be noted: zHDAC6-CD2 wt 1 μM, compound 5 μM, 6 hours, Bio-Spin P-6. As for the experimental part:
Rapid chromatography on spin columns coupled to LC-HRMS was used to attempt the isolation of long-lived/tight complexes between HDAC6 and examples 1 and 1-A. zHDAC6-CD2 wt (1 μM) was incubated with 1 (5 μM) or 1-A (also 5 μM) as described before for 6 hours. An aliquot (60 μL) was loaded on a Bio-Spin P-6 Gel Column (Bio-Rad) that had been equilibrated with assay buffer in order to separate the HDAC6-inhibitors complexes from free compounds. After centrifugation to elute the initial fraction containing most of the enzyme, ten 200 μL aliquots were applied and eluted by centrifugation to collect the low molecular weight (free) compounds. Aliquots of the fractions were subjected to LC-HRMS analysis (as described above) for identification and quantitation of 1 and its derivatives.

Another data set deals with HDAC6. The experiment in a line: Kinetic of prodrug disappearing when incubated with HDAC6 (LC-HRMS). The class given is biochemical. The settings on record: HDAC6 1 μM, 5 μM compound, 25° C.; for half-life at 5 µM: HDAC6 enzyme in assay buffer, read-out: T1/2 of prodrug disappearing. As for the experimental part: The LC-HRMS analysis was carried out using a Vanquish Flex UHPLC (Thermo Fisher Scientific) and a high-resolution mass spectrometer Orbitrap QExactive Focus (Thermo Fisher Scientific), equipped with a Heated Electrospray Ionization, operated in positive mode. A Full Scan analysis was set in the m/z range 50-500 amu. A XSelect HSS T3 50×2.1 mm, 2.5 μm chromatographic column (Waters) was used. Mobile phase A consisted of 0.1% formic acid in water and mobile phase B in 0.1% formic acid in acetonitrile. The flow rate was set to 0.5 mL/min, with a gradient program from 3 to 20% B in 3 minutes.

Chain of zHDAC6-CD2 wt (F8W4B7 entry or part of it del 1-439/del 799-1081 limits assumed): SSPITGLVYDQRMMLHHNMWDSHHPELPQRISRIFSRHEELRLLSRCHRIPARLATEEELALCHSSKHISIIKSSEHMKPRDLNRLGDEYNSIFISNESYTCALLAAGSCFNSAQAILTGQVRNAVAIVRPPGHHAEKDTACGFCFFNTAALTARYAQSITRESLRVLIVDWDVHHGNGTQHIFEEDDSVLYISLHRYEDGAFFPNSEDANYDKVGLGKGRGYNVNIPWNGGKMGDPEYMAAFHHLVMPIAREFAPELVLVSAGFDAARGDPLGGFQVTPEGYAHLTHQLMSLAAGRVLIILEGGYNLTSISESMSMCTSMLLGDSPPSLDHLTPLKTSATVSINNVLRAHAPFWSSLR

As for `FC(F)c1nnc(-c2ccc(Cn3cc(-c4ccc(NC5=NCCN5)cc4)nn3)cc2)o1` [Compound 1-A], at zHDAC6-CD2 wt, the “co-elution with the enzyme (fraction 1)” value is “behaves as a prodrug”.
`Nc1nc2ccc(-c3cn(Cc4ccc(-c5nnc(C(F)F)o5)cc4F)nn3)cc2s1` [Compound 2-A]: the “percentage of compound concentration (prodrug remaining)” value (“percentage … (prodrug remaining)” for short) in the data set on HDAC6 (time 0 min) is 100.00%; with HDAC6 (time 30 min), 73.1%; in the data set on HDAC6 (time 60 min), 53.6%; in the data set with HDAC6 (time 120 min), 31.1%; in the data set on HDAC6 (time 240 min) it was 11.1%; in the data set with HDAC6 (time 360 min) it was 3.9%. In addition, in the data set with HDAC6 (time 480 min), the “percentage … (prodrug remaining)” value amounted to 1.3%. In addition, in the data set on HDAC6, the half-life at 5 µM is 1.29 h.
Consider `Nc1nc2ccc(-c3cn(Cc4ccc(-c5nnc(C(F)F)o5)cc4Cl)nn3)cc2s1` [Compound 37-A], for which the “percentage … (prodrug remaining)” value in the data set with HDAC6 (time 0 min) is recorded as 100.00%; in the data set with HDAC6 (time 30 min), 88.1%; with HDAC6 (time 60 min), 69.2%; in the data set on HDAC6 (time 120 min), 38.4%; in the data set on HDAC6 (time 240 min), 12.1%; in the data set on HDAC6 (time 360 min) it was 3.7%. Also, in the data set on HDAC6 (time 480 min), the “percentage … (prodrug remaining)” value is listed as 1.3%. The half-life at 5 µM in the data set with HDAC6 is 1.24 h.
